Experimental data reported in patent publication US8457712B2, “Multi-mode medical device system and methods of manufacturing and using same” (Wisconsin Alumni Research Foundation, priority 2005, dated 2013).

Assay: Diffusion of a fluorescent probe in swollen gelatin gel by FRAP
Format: physicochemical
From the text: To assess the stability of DTPA[Gd(III)] in the gelatin coating, the diffusion of a fluorescence probe in gelatin was studied by the technique of fluorescence recovery after photobleaching (FRAP). The instrument and data analysis scheme are described in Kim, S. H. and Yu, H., J. Phys. Chem. 1992, 96, 4034, which is hereby fully incorporated by reference. Fluorescein was used as the fluorescence probe due, in part, to its molecular size being roughly the same as that of DTPA[Gd(III)]. The focus of the study was to examine the possible retardation effects of gelatin concentration and cross-link density on the diffusion, which was determined at room temperature, i.e., below the gel point of gelatin. The diffusion of fluorescein probe slows down with the increase of gelatin concentration. The diffusion coefficient decreases from 1.5×10-10 to 9×10-12 […]-1 when the concentration of gelatin increases from 9% to 40%. […] Accordingly, the probe diffusion is more likely controlled by the concentration of gelatin rather than the cross-link density. On the other hand, the cross-link density may determine the swelling ratio of gelatin, i.e., the concentration of gelatin in aqueous solution. […]

SMILES	time to diffuse out of the gelatin coating (estimated for coating thickness 60 μm and diffusion coefficient 9×10-12 m2s-1)	fluorescence signal remaining in gelatin films (after soaking in water for 18 hours, including films not cross-linked)
O=C(O)CN(CCN(CC(=O)O)CC(=O)O)CCN(CC(=O)O)CC(=O)O [DTPA, diethylenetriaminepentaacetic acid]	about 67 seconds	–
O=C1OC2(c3ccc(O)cc3Oc3cc(O)ccc32)c2ccccc21 [fluorescein]	–	still fluorescence signal
